Data published in patent US5849587A, “Method of inhibiting viral replication in eukaryotic cells and of inducing apoptosis of virally-infected cells” (Cornell Research Foundation, Inc., priority 1995, dated 1998).
Entries after “also recorded” stand apart in the source; their conditions may differ.

Legend:
[1] = target: T1, deoxyhypusyl hydroxylase (DOHH) in human T-cell line ACH-2 (Homo sapiens, UniProt Q9BU89); experiment: Deoxyhypusine-to-hypusine conversion by DOHH in ACH-2 cells; format: cell-based; conditions: for activity at 200 µM: ACH-2, 22 h, 22 hours, ACH-2 cells, FIG. 5, remaining conversion; for resumption of conversion after inhibitor removal: within 2 hours of inhibitor removal, after 200 μM, ACH-2
T1 construct: endogenous in cells; host or cells: ACH-2 (human T-cell line, subclone of the A3.01 variant of CEM)
T1 sequence (Q9BU89 1-302): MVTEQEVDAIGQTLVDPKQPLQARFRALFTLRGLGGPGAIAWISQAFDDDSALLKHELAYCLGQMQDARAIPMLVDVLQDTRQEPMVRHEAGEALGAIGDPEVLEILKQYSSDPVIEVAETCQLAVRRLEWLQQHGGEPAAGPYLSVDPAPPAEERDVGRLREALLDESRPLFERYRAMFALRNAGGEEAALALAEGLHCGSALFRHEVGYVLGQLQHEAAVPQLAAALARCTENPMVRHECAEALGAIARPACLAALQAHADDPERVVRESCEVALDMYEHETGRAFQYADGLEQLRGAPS
Experimental: DOHH Assay. The intracellular conversion of peptide-bound deoxyhypusine to peptidyl hypusine was determined after preincubation of human T lymphocyte-derived cells (i.e. ACH-2) [Clouse et al., J. Immunol. 142, 431-438 (1989), which is hereby incorporated by reference] with the hypusine inhibitors mimosine and HK-1 for 60 minutes, followed by labeling for 21 hours with ^3 H-spermidine (3.75 μCi/ml) in wells containing 3×10^6 cells suspended in 8 ml of serum-supplemented and antibiotic-containing RPMI 1640 medium. Cells were then split into two groups, one of them being harvested immediately to assess degree of DOHH inhibition, and the other harvested after transfer of the cells into inhibitor-free medium for 2 hours to measure resumption of DOHH activity. Harvesting consisted in precipitation of washed cells with 10% TCA containing 1 mM each of putrescine, spermidine, and spermine. Cellular proteins from each sample were then hydrolyzed in 6N HCl at 110° C. for 16 hours. The hydrolysate was analyzed for labeled amino acids on an amino acid analyzer by published methods [Park et al., J. Biol. Chem., 257, 7217-7222 (1982), which is hereby incorporated by reference]. The retention times of hypusine and deoxyhypusine were determined from standards. Similar studies were performed in human B-cells and human smooth muscle cells.

[2] = test system: uninfected parent cell line CEM; experiment: Flow cytometry of genomic DNA 3'-ends (apoptosis), uninfected parent cells; format: cell-based, human; conditions: for genomic DNA 3'-ends, CEM: 200 μM, 18 hours, FIG. 13
Experimental: FIGS. 13A-F show the flowcytometrically determined distribution of the number of fluorescently labeled 3'-ends in the genomic DNA of HIV-1 producing ACH-2 cells ("ACH-2") and their uninfected parent cell line CEM ("CEM"), both receiving no treatment ("NT") or treatment for 18 hours with either 200 μM mimosine ("MIM") or 200 μM HK-1 ("HK1"). […] This is the hallmark of irreversible auto-destruction of a cell's genetic library.
FIGS. 14A-H show the flowcytometrically determined distribution of the number of fluorescently labeled 3'-ends in the genomic DNA of HIV-1 producing ACH-2 cells ("ACH-2") and of their uninfected parent cell line CEM ("CEM"), both receiving no treatment ("NT") or treatment for 18 hours with 200 μM mimosine ("MIM"), followed by inhibitor withdrawal and reincubation in fresh medium for 2 hours.
ACH-2 cells were incubated with hypusine inhibitors (mimosine, HK-1) and induced with PMA as outlined in Example II A, except that the duration of exposure to inhibitor was extended to 18-21 hours and that cells were labeled as detailed in Example I B. Half of the cells were then harvested and processed for detection of apoptosis, while the other half was washed free of inhibitors and re-incubated in fresh medium for 2-4 hours, followed by harvesting and processing for detection of […] apoptosis. Using the same protocol, cultures of the parent CEM cell line were incubated in parallel. For assessment of apoptosis, cell viability was measured by exclusion of the dye trypan blue, by retention of the ^3 H-spermidine-derived intracellular radioactivity incorporated into the obligatory intracellular protein eIF-5A, and by direct fluorescence detection of the intemucleosomal degradation of genomic DNA. Such irreversible genome degradation signals the activation of pre-programmed suicide mechanisms within any cell, which is the hallmark of apoptosis, and inescapably results in cell death [Compton, Cancer Metast. 11, 105-119 (1992), which is hereby incorporated by reference]. For the latter method, a commercially available kit was used (Oncor, Gaithersburg, Md.). […]

[3] = test system: HIV-1 infected ACH-2 cells; experiment: Cell membrane integrity (trypan blue exclusion, retention of labeled eIF-5A), HIV-1 infected cells; format: cell-based, human; conditions: during 18-21 h incubation and 2-4 hours after withdrawal, FIGS. 12A and B
Experimental: FIGS. 12A and B show the loss of cell membrane integrity suffered by HIV-1 producing ACH-2 cells and their uninfected parent cell line CEM during incubation with and after withdrawal of mimosine and HK-1. The black bar indicates the duration of inhibitor exposure, the open bar the duration of inhibitor withdrawal. Cell membrane integrity was determined by the ability of the cells to exclude the low-molecular weight dye trypan blue (FIGS. 12A and B) and to retain the spermidine-derived radioactive label of a single, obligatory intracellular protein species, eIF-5A and its deoxyhypusyl precursor (FIG. 12A).
ACH-2 cells were incubated with hypusine inhibitors (mimosine, HK-1) and induced with PMA as outlined in Example II A, except that the duration of exposure to inhibitor was extended to 18-21 hours and that cells were labeled as detailed in Example I B. Half of the cells were then harvested and processed for detection of apoptosis, while the other half was washed free of inhibitors and re-incubated in fresh medium for 2-4 hours, followed by harvesting and processing for detection of […] apoptosis. Using the same protocol, cultures of the parent CEM cell line were incubated in parallel. […]

cellular protein TNF-α = experiment: TNF-α biosynthesis and secretion (ELISA) in PMA-induced ACH-2 cells; format: cell-based, human; conditions: 200 μM, PMA-induced ACH-2, FIG. 10
HIV-1 = experiment: Titration assay of infectivity of virus (TCID50) produced by infected H9 cells, CEM target cells; format: cell-based; conditions: 48 hours, increasing concentrations
Experimental: (§1) 1. Dose-dependency of antiviral effect. Cells of the human T lymphocyte line H9, chronically and productively infected with the Lai (IIIb) strain of HIV-1, were harvested during logarithmic proliferation, extensively washed to remove viral antigens and infectious particles, and re-suspendedin serum-supplemented and antibiotic-containing RPMI 1640 medium at a density of 2×10^5 cells/ml. After incubation with increasing concentrations of mimosine or HK-1 for 48 hours, the cells were harvested, lysed, and used to determine the intracellular amount of the p24 antigen derived from the p55 Gag polyprotein, using a commercially available, p24-specific ELISA method (Coulter, Hialeah, Fla.); the same method was also used to quantify the extracellular level of p24 antigen that had accumulated in the supernatant during incubation with the hypusine inhibitors. In addition, titration assays were performed using CEM target cells to measure the infectivity of virus produced in the absence and presence of the hypusine inhibitors using the procedure of Prince et al., Proc. Natl. Acad. Sci. USA 85, 6944-6948 (1988), which is hereby incorporated by reference. The half-maximal tissue culture infectious doses (TCID50) of HIV-1 per ml of test sample were calculated by the Spearman-Karber method.

[4] = test system: HIV-1 p24 antigen, H9 cells; experiment: p24 antigen levels (ELISA) in chronically HIV-1 infected H9 cells; format: cell-based; conditions: 48 hours, FIGS. 8 and 9
Experimental: as §1

Cc1c(O)c(=O)ccn1C [HK-1, 1,2-dimethyl-3-hydroxypyrid-4-one]
activity at 200 µM [1]: ≤ 10%
resumption of conversion after inhibitor removal [1]: almost tripled; also recorded: recovers readily and triples within the first 2 hours of inhibitor removal
genomic DNA 3'-ends, CEM [2]: did not affect the position of this peak in uninfected CEM cells; also recorded: Only the virally-infected ACH-2, but not the parent CEM cells reacted to the inhibitors
cell membrane integrity, HIV-1 producing ACH-2 [3]: the most marked, uniform and rapid decline of membrane integrity developed 2-4 hours after inhibitor withdrawal
TNF-α biosynthesis and secretion (cellular protein TNF-α): absence of such a suppressive effect
production of infectious HIV-1 particles / infectivity of virus (HIV-1): dose-dependently suppressive effect
intra- and extracellular p24 antigen levels [4]: inhibitory effect on the extracellular (FIG. 9A) and intracellular (FIG. 9B) levels of the p24 antigen

N[C@@H](Cn1ccc(=O)c(O)c1)C(=O)O [L-Mimosine]
activity at 200 µM [1]: ≤ 10%
resumption of conversion after inhibitor removal [1]: almost tripled; also recorded: recovers readily and triples within the first 2 hours of inhibitor removal
average fluorescence peak after incubation and withdrawal, CEM ([2]; 200 μM 18 hours, then 2 hours withdrawal, FIG. 14): the position and shape of the average fluorescence peak in CEM cells did not change; also recorded: Only the virally infected ACH-2, but not the parent CEM cells reacted to the inhibitor
genomic DNA 3'-ends, CEM [2]: did not affect the position of this peak in uninfected CEM cells; also recorded: Only the virally-infected ACH-2, but not the parent CEM cells reacted to the inhibitors
cell membrane integrity, HIV-1 producing ACH-2 [3]: the most marked, uniform and rapid decline of membrane integrity developed 2-4 hours after inhibitor withdrawal
TNF-α biosynthesis and secretion (cellular protein TNF-α): absence of such a suppressive effect
production of infectious HIV-1 particles / infectivity of virus (HIV-1): dose-dependently suppressive effect
intra- and extracellular p24 antigen levels [4]: inhibitory effect on the intracellular (FIG. 8A) and extracellular (FIG. 8B) levels of the p24 antigen
